Experimental data as given in patent US20220324835A1 (Nurix Therapeutics, Inc., priority 2018, published 2022).

Key:
Cbl-b [1] = molecular target: T1, Cbl-b (Homo sapiens, UniProt Q13191); assay: Cbl-b inhibition assay (Cbl-b activity assay, FRET, Biological Example 1; 100 mM NaCl, 60 nM Src kinase); format: biochemical; conditions: upper bound stated in text lists; read-out: IC50 values in the Cbl-b inhibition assay of Biological Example 1
Outline: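 N-terminally biotinylated Avi-tagged Cbl-b was mixed with Src kinase, UbcH5B covalently conjugated to Bodipy-fluorescein ubiquitin, and streptavidin-terbium. Src phosphorylation lets Cbl-b bind UbcH5B-Ub, giving terbium-fluorescein FRET; inhibition is read as loss of FRET signal.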

Cbl-b (residues 36-427) = Cbl-b (residues 36-427) (Homo sapiens, UniProt Q13191); assay: Cbl-b binding assay (SPR, Biacore T200); conditions: 20° C., 1:1 binding model
Sequence of Cbl-b (residues 36-427) (Q13191 36-427): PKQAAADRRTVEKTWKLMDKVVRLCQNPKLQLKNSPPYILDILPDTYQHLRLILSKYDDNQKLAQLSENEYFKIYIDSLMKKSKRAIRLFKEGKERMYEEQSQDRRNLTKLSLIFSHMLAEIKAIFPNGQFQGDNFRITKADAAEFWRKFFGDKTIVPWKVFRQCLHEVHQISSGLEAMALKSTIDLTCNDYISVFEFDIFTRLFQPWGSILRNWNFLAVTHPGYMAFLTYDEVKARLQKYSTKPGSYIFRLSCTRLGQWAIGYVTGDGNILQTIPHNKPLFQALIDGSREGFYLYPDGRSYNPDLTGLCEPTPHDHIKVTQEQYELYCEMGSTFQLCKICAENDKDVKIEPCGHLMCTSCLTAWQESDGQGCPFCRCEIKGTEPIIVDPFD
Description: SPR data was collected on a Biacore T200 (GE Healthcare) using a NeutrAvidin (Invitrogen) capture surface that was generated on a polycarboxylate hydrogel sensor chip of medium charge density (XanTec Bioanalytics GmbH) at 20° C. The surface was prepared using 20 mM HEPES, pH 7.5, 100 mM NaCl, 0.5 mM TCEP, 0.01% Triton X-100 as the immobilization buffer. Neutravidin was coupled to the sensor chip through EDC/NHS amine coupling. All steps were performed using a flow rate of 10 μl/min. First, the chip was preconditioned with a 3-min injection of 1 M NaCl, 0.1 M Borate followed by a 10-min equilibration in immobilization buffer. The surface was activated by a 5-min injection of 100 mM EDC/50 mM NHS. Next, 250 μg/mL NeutrAvidin buffered in 10 mM sodium acetate buffer, pH 5.0 was injected over the surface for 2 min. The surface was deactivated with 1 M Tris, pH 8.5 for 7 min then re-equilibrated in immobilization buffer for 7 min. […] Flow cell 1 served as a reference surface and was prepared without protein. All binding measurements were made in 20 mM HEPES, pH 7.5, 100 mM NaCl, 0.5 mM TCEP, 0.01% Triton X-100, 2% DMSO (referred as assay buffer) at 20° C. Compounds, prepared in assay buffer, were diluted from atop concentration of either 100 μM or 50 μM using either a 2- or 3-fold dilution scheme containing 8 or 10 points. Samples were injected for 50 s at 50 μl/min. Dissociation time varied from 90-180 s, depending on anticipated potency. The surface was regenerated by injection of 0.3 M NaCl, prepared in assay buffer for 20 s at 10 μl/min. Positive and negative control samples were run between each compound to monitor surface integrity.
Column marked with an asterisk (*) were tested as described above with assay buffer containing 50 mM NaCl instead of 100 mM NaCl and 30 nM Src kinase instead of 60 nM Src kinase. The resulting data for the Cbl-b binding assay was solvent corrected and double referenced prior to analysis. All data were globally fit to a steady-state affinity and kinetic binding model where applicable). Fit parameters were derived from a 1:1 binding model using the Biacore T200 Evaluation Software V2.0 (GE Healthcare) (Table 2).

Cbl-b [2] = molecular target: T1, Cbl-b; assay: Cbl-b activity assay (Cbl-b inhibition assay), TR-FRET of Cbl-b interaction with UbcH5B-Ub; format: biochemical; conditions: assay buffer with 100 mM NaCl, 60 nM Src kinase; read-out: Cbl-b activity IC50
Outline: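 Compound-treated Cbl-b was incubated 1.5 h with Src kinase (60 nM final; 30 nM for asterisked values, which also used 50 mM instead of 100 mM NaCl), 1 mM ATP and 5 mM MgCl2. Binding to fluorescent Ub-loaded UbcH5B (C85K mutant) was then read by TR-FRET after 1 h more.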

T1 sequence (Q13191 36-427): as above

| Compound | IC50 (Cbl-b [1]) | Kd (Cbl-b (residues 36-427)) | IC50 (Cbl-b [2]) |
| --- | --- | --- | --- |
| C[C@H](Cc1nncn1C)c1cccc(NC(=O)c2cc(O[C@@H]3CC[C@H](O)C3)ccn2)c1 [Compound 207, 4-((1R,3S)-3-hydroxycyclopentyloxy)-N-(3-((R)-1-(4-methyl-4H-1,2,4-triazol-3-yl)propan-2-yl)phenyl)picolinamide] | ≤ 1 µM | 1 to 3 µM | 0.301 to 1 µM |
| CNCCNC(=O)c1ccnc(C(=O)Nc2cccc([C@H](C)Cc3nncn3C)c2)c1 [Compound 244, (R)-N2-(3-(1-(4-methyl-4H-1,2,4-triazol-3-yl)propan-2-yl)phenyl)-N4-(2-(methylamino)ethyl)pyridine-2,4-dicarboxamide] | ≤ 10 µM | 1 to 3 µM | 1 to 3 µM |
| C[C@H](Cc1nccn1C)c1cccc(N2Cc3c(cccc3C(F)(F)F)C2=O)c1 [Compound 267a, (R)-2-(3-(1-(1-methyl-1H-imidazol-2-yl)propan-2-yl)phenyl)-4-(trifluoromethyl)isoindolin-1-one] | ≤ 10 µM | 3 to 10 µM | 1 to 3 µM |
| CC(Cc1nccn1C)c1cccc(NC(=O)c2cc(C(=O)N3CC[C@H](O)C3)ccn2)c1 (stereo partly drawn) [Compound 252, 4-((S)-3-hydroxypyrrolidine-1-carbonyl)-N-(3-(1-(1-methyl-s1H-imidazol-2-yl)propan-2-yl)phenyl)picolinamide] | ≤ 10 µM | 1 to 3 µM | 3 to 10 µM |
| CN[C@@H]1CCN(C(=O)c2ccnc(C(=O)Nc3cccc([C@H](C)Cc4nncn4C)c3)c2)C1 [Compound 249, N-(3-((R)-1-(4-methyl-4H-1,2,4-triazol-3-yl)propan-2-yl)phenyl)-4-((R)-3-(methylamino)pyrrolidine-1-carbonyl)picolinamide] | ≤ 10 µM | 1 to 3 µM | 1 to 3 µM |
| C[C@H](Sc1nncn1C)c1ccnc(NC(=O)c2cc(C(F)(F)F)c(Cl)cn2)c1 [Compound 114, (S)-5-chloro-N-(4-(1-((4-methyl-4H-1,2,4-triazol-3-yl)thio)ethyl)pyridin-2-yl)-4-(trifluoromethyl)picolinamide] | ≤ 10 µM | > 10 µM | 3 to 10 µM |
| C[C@H](Sc1nncn1C)c1cccc(NC(=O)c2cc(C(=O)N3CC[C@H](N(C)C)C3)ccn2)c1 [Compound 160, 4-((S)-3-(dimethylamino)pyrrolidine-1-carbonyl)-N-(3-((S)-1-((4-methyl-4H-1,2,4-triazol-3-yl)thio)ethyl)phenyl)picolinamide] | ≤ 10 µM | 3 to 10 µM | 3 to 10 µM |
| C[C@H](Cc1nccn1C)c1cccc(NC(=O)c2cc(C(=O)N3C[C@@H](O)C[C@H]3C)ccn2)c1 [Compound 253, 4-((2R,4S)-4-hydroxy-2-methylpyrrolidine-1-carbonyl)-N-(3-((R)-1-(1-methyl-1H-imidazol-2-yl)propan-2-yl)phenyl)picolinamide] | ≤ 10 µM | 3 to 10 µM | 3 to 10 µM |
| CC(=O)Nc1ccnc(C(=O)Nc2cccc([C@H](C)Sc3nncn3C)c2)c1 [Compound 59, (S)-4-acetamido-N-(3-(1-((4-methyl-4H-1,2,4-triazol-3-yl)thio)ethyl)phenyl)picolinamide] | ≤ 10 µM | 3 to 10 µM | 1 to 3 µM |
| C[C@H](Sc1nncn1C)c1cccc(NC(=O)c2cc(C(=O)N3C[C@H](O)[C@@H](O)C3)ccn2)c1 [Compound 155, 4-[[(3S,4S)-3,4-dihydroxypyrrolidin-1-yl]carbonyl]-N-[3-[(1S)-1-[(4-methyl-4H-1,2,4-triazol-3-yl)sulfanyl]ethyl]phenyl]pyridine-2-carboxamide] | ≤ 10 µM | 3 to 10 µM | 1 to 3 µM |
| C[C@H](Sc1nncn1C)c1cccc(NC(=O)c2cccc(OC(F)(F)F)c2)c1 [Compound 79, (S)-N-(3-(1-((4-methyl-4H-1,2,4-triazol-3-yl)thio)ethyl)phenyl)-3-(trifluoromethoxy)benzamide] | ≤ 10 µM | 3 to 10 µM | 3 to 10 µM |
| CC(Sc1nncn1C)c1cc(NC2CCOC2)nc(N2Cc3c(cccc3C(F)(F)F)C2=O)c1 (stereo not drawn) [Compound 179, 2-(4-(1-((4-methyl-4H-1,2,4-triazol-3-yl)thio)ethyl)-6-((tetrahydrofuran-3-yl)amino)pyridin-2-yl)-4-(trifluoromethyl)isoindolin-1-one] | ≤ 10 µM | 3 to 10 µM | 3 to 10 µM |
| C[C@@H](Sc1nncn1C)c1cc(F)cc(N2Cc3c(cccc3C(F)(F)F)C2=O)c1 [Compound 168b, 2-[3-fluoro-5-[(1R)-1-[(4-methyl-1,2,4-triazol-3-yl)sulfanyl]ethyl]phenyl]-4-(trifluoromethyl)isoindolin-1-one] | ≤ 10 µM | 1 to 3 µM | 1 to 3 µM |
| C[C@H](Sc1nncn1C)c1cccc(NC(=O)c2cc(C(=O)N3CCCC3)ccn2)c1 [Compound 138, (S)-N-(3-(1-((4-methyl-4H-1,2,4-triazol-3-yl)thio)ethyl)phenyl)-4-(pyrrolidine-1-carbonyl)picolinamide] | ≤ 10 µM | > 10 µM | 3 to 10 µM |
| C[C@H](Sc1nncn1C)c1cccc(NC(=O)c2cc(C(F)(F)F)cc(Cl)n2)c1 [Compound 66, (S)-6-chloro-N-(3-(1-((4-methyl-4H-1,2,4-triazol-3-yl)thio)ethyl)phenyl)-4-(trifluoromethyl)picolinamide] | ≤ 10 µM | 3 to 10 µM | 1 to 3 µM |
| Cn1cnnc1C[C@@](C)(F)c1cccc(N2Cc3c(cccc3C(F)(F)F)C2=O)c1 [Compound 298a, (R)-2-(3-(2-fluoro-1-(4-methyl-4H-1,2,4-triazol-3-yl)propan-2-yl)phenyl)-4-(trifluoromethyl)isoindolin-1-one] | ≤ 10 µM | 3 to 10 µM | 1 to 3 µM |
| C[C@H](Cc1nncn1C)c1cccc(NC(=O)c2cc(C(=O)N3CCNCC3)ccn2)c1 [Compound 242, (R)-N-(3-(1-(4-methyl-4H-1,2,4-triazol-3-yl)propan-2-yl)phenyl)-4-(piperazine-1-carbonyl)picolinamide] | ≤ 10 µM | 3 to 10 µM | 3 to 10 µM |
| C[C@H](Sc1nncn1C)c1ccc(F)c(N2Cc3c(cccc3C(F)(F)F)C2=O)c1 [Compound 169, 2-[2-fluoro-5-[(1S)-1-[(4-methyl-1,2,4-triazol-3-yl)sulfanyl]ethyl]phenyl]-4-(trifluoromethyl)isoindolin-1-one] | ≤ 10 µM | 1 to 3 µM | 1 to 3 µM |
| C[C@H](Sc1nncn1C)c1cccc(NC(=O)c2cc(C(=O)N3CC[C@H](N)C3)ccn2)c1 [Compound 147, 4-((S)-3-aminopyrrolidine-1-carbonyl)-N-(3-((S)-1-(4-methyl-4H-1,2,4-triazol-3-ylthio)ethyl)phenyl)picolinamide] | ≤ 10 µM | 3 to 10 µM | 3 to 10 µM |
| C[C@H](Sc1nncn1C)c1cccc(NC(=O)c2cc(C(=O)N3CCC3)ccn2)c1 [Compound 143, (S)-4-(azetidine-1-carbonyl)-N-(3-(1-((4-methyl-4H-1,2,4-triazol-3-yl)thio)ethyl)phenyl)picolinamide] | ≤ 10 µM | 3 to 10 µM | 3 to 10 µM |
| C[C@H](Cc1nncn1C)c1ccnc(NC(=O)c2ccc3ccccc3n2)c1 [Compound 303, (R)-N-(4-(1-(4-methyl-4H-1,2,4-triazol-3-yl)propan-2-yl)pyridin-2-yl)quinoline-2-carboxamide] | ≤ 1 µM | 3 to 10 µM | 0.301 to 1 µM |
| C[C@H](Cc1nncn1C)c1cccc(NC(=O)c2cc(C(=O)N3CC(S(C)(=O)=O)C3)ccn2)c1 [Compound 225, 4-(3-methanesulfonylazetidine-1-carbonyl)-N-[3-[(2R)-1-(4-methyl-4H-1,2,4-triazol-3-yl)propan-2-yl]phenyl]pyridine-2-carboxamide] | ≤ 10 µM | 3 to 10 µM | 1 to 3 µM |
